In patent publication US20190231771A1, “METHODS FOR TREATMENT AND PREVENTION OF OPIOID INDUCED CONSTIPATION USING ORAL COMPOSITIONS OF METHYLNALTREXONE” (Salix Pharmaceuticals, Ltd., priority 2011, published 2019):

Legend:
Assay type in all cases: in vivo, human
[1] = Study B: single and multiple dose pharmacokinetics after 20-minute intravenous infusion of 24 mg methylnaltrexone; conditions: 24 mg IV infusion; for t1/2 / AUC0-6: day not given; for AUC0-6: mean; for Metabolite ÷ MNTX Ratio / R (IV), accumulation factor: AUCinf used
Description: (§1) Presented herein is a clinical pharmacokinetics study, Study C, as well as Studies A and B. Study A investigated the single and multiple dose pharmacokinetics of methylnaltrexone (MNTX) and its metabolites (M2: methylnaltrexone sulfate; M4: 6α-methylnaltrexol; and M5: 6β-methylnaltrexol) following the subcutaneous administration of 12 mg methylnaltrexone. In Study B, the single and multiple dose pharmacokinetics of methylnaltrexone (MNTX) and its metabolites (M2, M4, and M5) were examined following a 20-minute short intravenous infusion of 24 mg of methylnaltrexone (MNTX).
(§2) Pharmacokinetic parameters included Cmax, AUCt, AUCinf, tmax, t1/2, % Re24, accumulation factor (R) as defined below and metabolite/parent drug ratio.
(§3) R=Accumulation Factor(based on AUC0-24(ng·h/mL):Day 7 AUC AUC0-24/Day 1 AUC0-24
(§4) Metabolite-Parent Drug ratio(based on ng·h/mL)(%)=100*(Metabolite AUC24/MNTX AUC24)
(§5) Note: AUCinf was used in place of AUC AUC0-24 for R and Metabolite-Parent Drug ratio computations following IV administration.

[2] = Study C: single and multiple dose pharmacokinetics of MNTX and metabolites, MNTX 450 mg PO x 7 days; conditions: for t1/2 / AUC0-24 / AUCinf / Cmax / Tmax / Metabolite/MNTX Ratio / R (PO), accumulation factor: 450 mg Tablets oral; for Metabolite/MNTX Ratio: 100*(Metabolite AUC24/MNTX AUC24); for R (PO), accumulation factor: AUC0-24 on Day 7/AUC0-24 on Day 1; for metabolite to MNTX ratios following oral administration: day and AUC basis not stated
Description: as §1
In addition, the urinary elimination of MNTX was characterized.
as §2, §3, §4, §5

[3] = Study A: single and multiple dose pharmacokinetics after subcutaneous 12 mg methylnaltrexone; conditions: 12 mg SC Injection; for t1/2: day not given, harmonic mean; for R (SC), accumulation factor: AUC0-24 on Day 7/AUC0-24 on Day 1
Description: as §1, §2, §3, §4, §5

Row | Compound | AUCinf ([1]; Day 1, mean) | Cmax ([1]; Day 1, mean) | AUCinf ([1]; Day 7, mean) | Cmax ([1]; Day 7, mean) | t1/2 [1] | AUC0-6 [1] | Metabolite ÷ MNTX Ratio [1] | R (IV), accumulation factor [1] | t1/2 ([2]; Day 1, harmonic mean) | AUC0-24 ([2]; Day 1, mean) | AUCinf ([2]; Day 1, mean) | Cmax ([2]; Day 1, mean) | Tmax ([2]; Day 1, median) | Metabolite/MNTX Ratio ([2]; Day 1) | t1/2 ([2]; Day 7, harmonic mean) | AUC0-24 ([2]; Day 7, mean) | AUCinf ([2]; Day 7, mean) | Cmax ([2]; Day 7, mean) | Tmax ([2]; Day 7, median) | Metabolite/MNTX Ratio ([2]; Day 7) | other results
1 | methylnaltrexone sulfate [M2] | 162 ng·h/mL | 16.6 ng/mL | 176 ng·h/mL | 37.70 ng/mL | 5.70 h | 72.3 ng·h/mL | 46.60% | 2.61 | 7.19 h | 188.63 ng·h/mL | 216.89 ng·h/mL | 17.15 ng/mL | 4.02 h | 72.69% | 13.87 h | 243.72 ng·h/mL | 320.51 ng·h/mL | 21.00 ng/mL | 4.02 h | 79.11% | R (PO), accumulation factor [2]: 1.30; metabolite to MNTX ratios following oral administration [2]: 81.0%; Metabolite/MNTX Ratio ([3]; Day 1): 28.71%; AUC0-24 ([3]; Day 1, mean): 61.34 ng·h/mL; AUCinf ([3]; Day 1, mean): 71.9 ng·h/mL; Cmax ([3]; Day 1, mean): 6.34 ng/mL; Tmax ([3]; Day 1, median): 4.00 h; Metabolite/MNTX Ratio ([3]; Day 7): 29.30%; AUC0-24 ([3]; Day 7, mean): 66.3 ng·h/mL; AUCinf ([3]; Day 7, mean): 66.3 ng·h/mL; Cmax ([3]; Day 7, mean): 5.70 ng/mL; Tmax ([3]; Day 7, median): 4.00 h; t1/2 [3]: 5.57 h; R (SC), accumulation factor [3]: 1.13
2 | C[N@+]1(CC2CC2)CC[C@]23c4c5ccc(O)c4O[C@H]2[C@@H](O)CC[C@@]3(O)[C@H]1C5 [M4, 6α-methylnaltrexol] | 61.30 ng·h/mL | 11.0 ng/mL | 54.0 ng·h/mL | 18.10 ng/mL | 12.28 h | 28.8 ng·h/mL | 14.90% | 2.08 | 17.48 h | 79.73 ng·h/mL | 124.23 ng·h/mL | 9.01 ng/mL | 2.0003 h | 29.70% | 31.85 h | 119.61 ng·h/mL | 221.13 ng·h/mL | 10.77 ng/mL | 2.0007 h | 38.50% | R (PO), accumulation factor [2]: 1.62; metabolite to MNTX ratios following oral administration [2]: 54.21%; Metabolite/MNTX Ratio ([3]; Day 1): 15.81%; AUC0-24 ([3]; Day 1, mean): 34.66 ng·h/mL; AUCinf ([3]; Day 1, mean): 38.3 ng·h/mL; Cmax ([3]; Day 1, mean): 4.64 ng/mL; Tmax ([3]; Day 1, median): 1.0 h; Metabolite/MNTX Ratio ([3]; Day 7): 18.75%; AUC0-24 ([3]; Day 7, mean): 41.86 ng·h/mL; AUCinf ([3]; Day 7, mean): 41.9 ng·h/mL; Cmax ([3]; Day 7, mean): 4.33 ng/mL; Tmax ([3]; Day 7, median): 1.0 h; t1/2 [3]: 7.59 h; R (SC), accumulation factor [3]: 1.25
3 | C[N@+]1(CC2CC2)CC[C@]23c4c5ccc(O)c4O[C@H]2[C@H](O)CC[C@@]3(O)[C@H]1C5 [M5, 6β-methylnaltrexol] | 35.10 ng·h/mL | 3.44 ng/mL | 30.0 ng·h/mL | 8.71 ng/mL | 12.3 h | 12.3 ng·h/mL | 8.69% | 2.91 | 18.40 h | 40.84 ng·h/mL | 73.61 ng·h/mL | 3.48 ng/mL | 3.13 h | 15.10% | 28.65 h | 66.33 ng·h/mL | 120.87 ng·h/mL | 4.89 ng/mL | 2.69 h | 21.41% | R (PO), accumulation factor [2]: 1.76; metabolite to MNTX ratios following oral administration [2]: 29.78%; Metabolite/MNTX Ratio ([3]; Day 1): 6.58%; AUC0-24 ([3]; Day 1, mean): 14.41 ng·h/mL; AUCinf ([3]; Day 1, mean): 18.5 ng·h/mL; Cmax ([3]; Day 1, mean): 1.17 ng/mL; Tmax ([3]; Day 1, median): 2.0 h; Metabolite/MNTX Ratio ([3]; Day 7): 8.72%; AUC0-24 ([3]; Day 7, mean): 19.51 ng·h/mL; AUCinf ([3]; Day 7, mean): 19.5 ng·h/mL; Cmax ([3]; Day 7, mean): 1.42 ng/mL; Tmax ([3]; Day 7, median): 2.0 h; t1/2 [3]: 8.13 h; R (SC), accumulation factor [3]: 1.42
